# Laboratory results published in article PMC12615753, “Glutathione as a taste modulator: molecular mechanisms of interaction with umami and sweet taste receptors” (Food Chemistry: Molecular Sciences, 2025).
# Key:
# [1] = target: T1, hTAS1R2/rTAS1R3(Mut1) (UniProt Q8TE23+Q923K1, A277V/L68N/R278H/S168G/S302A); experiment: Calcium assay, mutated rTAS1R3 co-expressed with hTAS1R2; type: cell-based, human, rat
# T1 construct: The cDNA coding region of rTAS1R3 was synthesized with optimized-codon usage for human expression; expressed in transfected cells
# Experimental: HEK293T/17 cells (ATCC CRL-11268) were seeded into clear bottom black 96-well plates coated with poly-D-lysine at a density of 32500 cells/well in 100 μL of DMEM containing 4.5 g/L glucose and supplemented with penicillin/streptomycin, 2 mM GlutaMAX and 10 % dialyzed fetal bovine serum. The plates were incubated for 24 h at 37 °C and 7.3 % CO2 in a humidified atmosphere. After incubation, using Fugene® 4 K (0.46 μL/well, Promega, Illkirch, France), the cells were transiently transfected with pcDNA3-hTAS1R1-WT (60 ng/well) or TAS1R1 mutants, pcDNA4-rTAS1R3 (60 ng/well), pcDNA3-Gα15i2 (10 ng/well), and pGP-CMV-GCaMP6s (Addgene #40753; 10 ng/well) as a genetically encoded calcium indicator. […] After 20 s of basal fluorescence calcium measurement, the cells were stimulated via automatic injection of a range of compounds in eight wells, and the signal emission was recorded for an additional 70 s, via a FlexStation 3® fluorometric microplate reader (Molecular Devices, San Jose, CA, USA). […] The emitted fluorescence was measured at a wavelength of 510 nm after excitation at 488 nm. […] For each well, the decrease in the raw fluorescence as the relative fluorescence changed was calculated as ΔF/F0. Replicates were averaged for the wells subjected to the same stimuli, the background signal was subtracted, and the fluorescence changes in mock-transfected cells were subtracted. […]
# [2] = target: T2, hTAS1R1 H71A/rTAS1R3 (UniProt Q7RTX1+Q923K1, H71A); experiment: Calcium assay, hTAS1R1 mutant co-expressed with rTAS1R3; type: cell-based, human, rat
# T2 construct: The cDNA coding region of rTAS1R3 was synthesized with optimized-codon usage for human expression; expressed in transfected cells; host or cells: HEK293T/17
# T2 sequence (Q7RTX1 21-841 H71A): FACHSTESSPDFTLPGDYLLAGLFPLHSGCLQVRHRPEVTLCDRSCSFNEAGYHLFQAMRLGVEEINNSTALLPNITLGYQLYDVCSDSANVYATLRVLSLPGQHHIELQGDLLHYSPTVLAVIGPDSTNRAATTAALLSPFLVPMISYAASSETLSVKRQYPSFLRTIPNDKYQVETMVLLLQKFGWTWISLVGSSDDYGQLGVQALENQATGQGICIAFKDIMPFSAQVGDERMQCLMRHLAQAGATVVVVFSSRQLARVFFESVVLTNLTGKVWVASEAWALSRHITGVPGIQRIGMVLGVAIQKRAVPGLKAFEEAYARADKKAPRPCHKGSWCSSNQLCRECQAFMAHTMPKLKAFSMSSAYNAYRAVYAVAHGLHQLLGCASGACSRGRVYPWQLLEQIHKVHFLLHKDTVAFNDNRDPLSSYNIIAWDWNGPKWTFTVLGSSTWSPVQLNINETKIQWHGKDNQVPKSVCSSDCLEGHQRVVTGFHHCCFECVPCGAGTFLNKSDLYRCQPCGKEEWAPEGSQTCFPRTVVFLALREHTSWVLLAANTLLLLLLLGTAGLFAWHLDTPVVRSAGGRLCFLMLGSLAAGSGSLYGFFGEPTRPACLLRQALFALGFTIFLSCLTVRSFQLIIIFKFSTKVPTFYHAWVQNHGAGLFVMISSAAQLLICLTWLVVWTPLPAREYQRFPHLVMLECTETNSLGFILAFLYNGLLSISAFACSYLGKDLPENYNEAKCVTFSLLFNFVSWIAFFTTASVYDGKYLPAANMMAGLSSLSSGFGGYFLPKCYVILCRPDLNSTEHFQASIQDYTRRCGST
# T2 sequence (Q923K1 21-858): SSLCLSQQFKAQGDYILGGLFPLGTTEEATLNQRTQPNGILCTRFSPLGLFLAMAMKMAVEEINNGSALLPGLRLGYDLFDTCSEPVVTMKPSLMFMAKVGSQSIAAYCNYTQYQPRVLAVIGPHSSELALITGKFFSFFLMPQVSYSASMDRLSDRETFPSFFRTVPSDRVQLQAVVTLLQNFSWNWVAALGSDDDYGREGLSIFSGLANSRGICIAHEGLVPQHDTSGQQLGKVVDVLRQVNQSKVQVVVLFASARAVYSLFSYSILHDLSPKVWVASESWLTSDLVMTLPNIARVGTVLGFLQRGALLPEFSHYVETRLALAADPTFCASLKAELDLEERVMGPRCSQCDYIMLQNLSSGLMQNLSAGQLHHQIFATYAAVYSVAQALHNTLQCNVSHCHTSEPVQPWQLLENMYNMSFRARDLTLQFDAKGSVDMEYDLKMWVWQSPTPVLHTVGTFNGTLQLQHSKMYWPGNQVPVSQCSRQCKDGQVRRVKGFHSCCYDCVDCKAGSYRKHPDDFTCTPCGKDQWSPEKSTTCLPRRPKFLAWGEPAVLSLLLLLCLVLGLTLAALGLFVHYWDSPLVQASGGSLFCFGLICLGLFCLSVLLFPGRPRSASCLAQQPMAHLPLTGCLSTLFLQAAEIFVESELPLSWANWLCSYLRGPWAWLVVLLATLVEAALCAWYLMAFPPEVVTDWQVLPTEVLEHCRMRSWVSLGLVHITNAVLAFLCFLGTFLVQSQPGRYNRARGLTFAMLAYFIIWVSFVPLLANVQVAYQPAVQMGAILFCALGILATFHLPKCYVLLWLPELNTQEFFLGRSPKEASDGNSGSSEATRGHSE
# T1 sequence (Q8TE23 20-839, stated change not applied): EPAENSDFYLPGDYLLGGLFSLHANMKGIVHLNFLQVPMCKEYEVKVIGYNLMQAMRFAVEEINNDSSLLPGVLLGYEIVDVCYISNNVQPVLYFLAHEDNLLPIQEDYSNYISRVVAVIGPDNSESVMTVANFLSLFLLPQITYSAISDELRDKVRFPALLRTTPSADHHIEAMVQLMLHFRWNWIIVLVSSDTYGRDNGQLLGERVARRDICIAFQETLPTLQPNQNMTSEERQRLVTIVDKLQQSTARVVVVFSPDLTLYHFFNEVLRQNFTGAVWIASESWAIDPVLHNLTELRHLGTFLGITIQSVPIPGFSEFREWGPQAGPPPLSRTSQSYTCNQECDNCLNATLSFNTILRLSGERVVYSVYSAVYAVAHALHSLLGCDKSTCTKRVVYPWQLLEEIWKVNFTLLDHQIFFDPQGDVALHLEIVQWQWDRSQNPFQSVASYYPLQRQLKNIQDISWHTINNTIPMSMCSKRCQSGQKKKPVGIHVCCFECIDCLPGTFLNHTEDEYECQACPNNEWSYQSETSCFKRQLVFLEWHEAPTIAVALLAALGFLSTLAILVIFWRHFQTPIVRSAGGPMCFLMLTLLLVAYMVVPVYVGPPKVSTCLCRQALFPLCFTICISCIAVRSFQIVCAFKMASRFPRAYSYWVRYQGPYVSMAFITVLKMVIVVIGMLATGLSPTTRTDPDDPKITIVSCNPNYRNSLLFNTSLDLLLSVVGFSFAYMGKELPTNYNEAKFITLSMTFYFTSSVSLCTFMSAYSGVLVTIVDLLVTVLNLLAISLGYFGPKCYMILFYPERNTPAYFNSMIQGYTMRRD
# T1 sequence (Q923K1 21-858 L68N/S168G/A277V/R278H/S302A): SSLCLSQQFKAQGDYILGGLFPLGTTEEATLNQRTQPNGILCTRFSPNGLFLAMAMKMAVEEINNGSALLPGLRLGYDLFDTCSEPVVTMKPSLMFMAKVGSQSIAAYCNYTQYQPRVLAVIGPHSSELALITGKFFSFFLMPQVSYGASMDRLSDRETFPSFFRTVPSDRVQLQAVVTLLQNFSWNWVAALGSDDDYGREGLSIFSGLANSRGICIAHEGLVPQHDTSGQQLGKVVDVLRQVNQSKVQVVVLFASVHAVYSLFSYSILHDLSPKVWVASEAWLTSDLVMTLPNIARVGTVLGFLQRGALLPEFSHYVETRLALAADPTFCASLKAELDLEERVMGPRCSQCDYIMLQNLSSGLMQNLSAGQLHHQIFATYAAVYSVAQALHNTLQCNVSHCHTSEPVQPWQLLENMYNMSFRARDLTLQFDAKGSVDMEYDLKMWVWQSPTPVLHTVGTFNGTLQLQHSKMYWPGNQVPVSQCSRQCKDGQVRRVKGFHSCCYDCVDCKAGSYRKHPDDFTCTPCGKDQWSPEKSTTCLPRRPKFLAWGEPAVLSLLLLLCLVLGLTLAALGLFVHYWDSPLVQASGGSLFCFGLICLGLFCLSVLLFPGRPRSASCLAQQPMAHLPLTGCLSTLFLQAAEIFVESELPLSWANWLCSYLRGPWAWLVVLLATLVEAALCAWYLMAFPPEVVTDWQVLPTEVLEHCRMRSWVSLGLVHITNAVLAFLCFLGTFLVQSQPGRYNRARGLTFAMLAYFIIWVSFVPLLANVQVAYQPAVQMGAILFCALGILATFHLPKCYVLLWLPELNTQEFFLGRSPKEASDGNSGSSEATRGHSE
smiles,measurement,setting,value
"N[C@@H](CCC(=O)N[C@@H](CS)C(=O)NCC(=O)O)C(=O)O [GSH, γ-L-glutamyl-L-cysteinyl-glycine]",effect of 10 mM GSH on the response to sucralose,[1],not increased
same,EC50,[2],2030 ± 416 µM
same,effect of the added compound (1 mM) on the response to L-Glu,[2]; H71A,did not affect
same,Max ∆F/F0,"[2]; H71A, GSH",0.44 ± 0.03
same,R1 = mutant EC50/WT EC50,"[2]; H71A, GSH",0.8
"CCCC(CCC)NC(=O)c1ccc2c(c1)OCO2 [S807, N-(heptan-4-yl)benzo[d][1,3]dioxole-5-carboxamide, reference compound]","response to the agonist alone, vs WT",[2]; H71A,strongly affected
"OC[C@H]1O[C@H](O[C@]2(CCl)O[C@H](CCl)[C@@H](O)[C@@H]2O)[C@H](O)[C@@H](O)[C@H]1Cl [sucralose, reference compound]",EC50,"[1]; sucralose alone, Fig. 4A",283 ± 55 µM
